Experiment [1] deals with T1, NLRP3 (Homo sapiens, UniProt Q96P20). The experiment in a line: THP-1 cells pyroptosis assay (LPS priming, nigericin, resazurin read-out). In kind it is cell-based. Further details: Seed THP-1 cells (25,000 cells/well) containing 1.0 μg/ml LPS; host or cells: THP-1 cells. The settings on record: 1.0 μg/ml LPS, 5 μM nigericin. Here is the method:
THP-1 cells (ATCC #TIB-202) were grown in RPMI containing L-glutamine (Gibco #11835) supplemented with 1 mM sodium pyruvate (Sigma #S8636) and penicillin (100 units/ml)/streptomycin (0.1 mg/ml) (Sigma #P4333) in 10% Fetal Bovine Serum (FBS) (Sigma #F0804). The cells were routinely passaged and grown to confluency (˜10^6 cells/ml). On the day of the experiment, THP-1 cells were harvested and resuspended into RPMI medium (without FBS). The cells were then counted and viability (>90%) checked by Trypan blue (Sigma #T8154). Appropriate dilutions were made to give a concentration of 625,000 cells/ml. To this diluted cell solution was added LPS (Sigma #L4524) to give a lug/ml Final Assay Concentration (FAC). 40 μl of the final preparation was aliquoted into each well of a 96-well plate. The plate thus prepared was used for compound screening.
The following method step-by-step assay was followed for compound screening. • 1. Seed THP-1 cells (25,000 cells/well) containing 1.0 μg/ml LPS in 40 μl of RPMI medium (without FBS) in 96-well, black walled, clear bottom cell culture plates coated with poly-D-lysine (VWR #734-0317) • 2. Add 5 μl compound (8 points half-log dilution, with 10 μM top dose) or vehicle (DMSO 0.1% FAC) to the appropriate wells • 3. Incubate for 3 hours at 37° C., 5% CO2 • 4. Add 5 μl nigericin (Sigma #N7143) (FAC 5 μM) to all wells • 5. Incubate for 1 hr at 37° C., 5% CO2 • 6. At the end of the incubation period, spin plates at 300×g for 3 mins and remove supernatant • 7. Then add 50 μl of resazurin (Sigma #R7017) (FAC 100 μM resazurin in RPMI medium without FBS) and incubate plates for a further 1-2 hours at 37° C. and 5% CO2 • 8. Plates were read in an Envision reader at Ex 560 nm and Em 590 nm • 9. IC50 data is fitted to a non-linear regression equation (log inhibitor vs response-variable slope 4-parameters)
Background: The colour change of resazurin is a common sign of viable cells or microbes.

Experiment [2] addresses T1, NLRP3. The experiment is described as follows: Human whole blood IL-1β release assay (LPS, nigericin, AlphaLisa). In kind it is cell-based. Further details: Human whole blood in Li-heparin tubes was obtained from healthy donors; from tissue; host or cells: human whole blood from healthy donors. The settings on record: 10 μM nigericin. Here is the method:
For systemic delivery, the ability to inhibit NLRP3 when the compounds are present within the bloodstream is of great importance. For this reason, the NLRP3 inhibitory activity of a number of compounds in human whole blood was investigated in accordance with the following protocol.
Human whole blood in Li-heparin tubes was obtained from healthy donors from a volunteer donor panel. • 1. Plate out 80 μl of whole blood containing lug/ml of LPS in 96-well, clear bottom cell culture plate (Corning #3585) • 2. Add 10 μl compound (8 points half-log dilution with 10 μM top dose) or vehicle (DMSO 0.1% FAC) to the appropriate wells • 3. Incubate for 3 hours at 37° C., 5% CO2 • 4. Add 10 μl nigericin (Sigma #N7143) (10 μM FAC) to all wells • 5. Incubate for 1 hr at 37° C., 5% CO2 • 6. At the end of the incubation period, spin plates at 300×g for 5 mins to pellet cells and remove 20 μl of supernatant and add to 96-well v-bottom plates for IL-1β analysis (note: these plates containing the supernatants can be stored at −80° C. to be analysed at a later date) • 7. IL-1β was measured according to the manufacturer protocol (Perkin Elmer-AlphaLisa IL-1 Kit AL220F-5000) • 8. IC50 data is fitted to a non-linear regression equation (log inhibitor vs response-variable slope 4-parameters)
In general terms: In Alpha technology, singlet oxygen from a donor bead excites a nearby acceptor bead.

T1 sequence (Q96P20 whole entry): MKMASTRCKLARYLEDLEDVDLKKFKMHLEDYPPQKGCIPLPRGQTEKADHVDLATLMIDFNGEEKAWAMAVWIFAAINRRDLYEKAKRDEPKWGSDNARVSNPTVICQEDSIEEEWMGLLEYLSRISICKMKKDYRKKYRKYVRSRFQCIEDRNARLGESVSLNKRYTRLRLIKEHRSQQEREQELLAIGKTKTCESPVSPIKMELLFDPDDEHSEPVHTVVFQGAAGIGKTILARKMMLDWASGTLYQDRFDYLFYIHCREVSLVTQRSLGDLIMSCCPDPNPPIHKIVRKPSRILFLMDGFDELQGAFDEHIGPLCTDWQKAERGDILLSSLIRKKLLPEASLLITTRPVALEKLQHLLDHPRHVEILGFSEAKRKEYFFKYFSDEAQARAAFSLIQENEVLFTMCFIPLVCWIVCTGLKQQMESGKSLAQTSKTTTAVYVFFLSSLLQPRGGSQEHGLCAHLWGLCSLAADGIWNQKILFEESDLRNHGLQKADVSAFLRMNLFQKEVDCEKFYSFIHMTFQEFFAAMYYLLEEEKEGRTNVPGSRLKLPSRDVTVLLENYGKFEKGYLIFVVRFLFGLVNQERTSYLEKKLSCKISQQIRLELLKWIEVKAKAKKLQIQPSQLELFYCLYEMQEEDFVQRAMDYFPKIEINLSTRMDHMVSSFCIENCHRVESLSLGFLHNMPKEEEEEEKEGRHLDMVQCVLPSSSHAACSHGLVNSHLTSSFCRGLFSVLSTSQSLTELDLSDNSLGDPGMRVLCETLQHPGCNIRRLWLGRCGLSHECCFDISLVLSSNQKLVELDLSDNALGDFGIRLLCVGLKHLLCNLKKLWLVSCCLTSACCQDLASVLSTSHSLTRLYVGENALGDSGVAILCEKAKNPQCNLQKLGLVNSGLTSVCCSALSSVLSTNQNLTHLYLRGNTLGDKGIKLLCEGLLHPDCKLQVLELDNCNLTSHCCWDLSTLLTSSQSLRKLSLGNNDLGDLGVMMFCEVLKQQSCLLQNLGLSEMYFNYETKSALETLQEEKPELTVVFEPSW

The IC50 is the point on the concentration scale where inhibition reaches its midpoint. Turning to `Cc1nc(N[C@H]2CCCN3CCC[C@H]23)nnc1-c1ccc(C(F)(F)F)cc1O` (racemic) [Example 26, 2-[5-Methyl-3-[[rac-(8S,8aR)-1,2,3,5,6,7,8,8a-octahydroindolizin-8-yl]amino]-1,2,4-triazin-6-yl]-5-(trifluoromethyl) phenol], on NLRP3 [1], the IC50 was determined as 5.1 nM.

On to `Cc1nc(N[C@H]2CCCN3CCC[C@@H]23)nnc1-c1ccc(C(F)(F)F)cc1O` (racemic) [Example 27, 2-[5-Methyl-3-[[rac-(8S,8aS)-1,2,3,5,6,7,8,8a-octahydroindolizin-8-yl]amino]-1,2,4-triazin-6-yl]-5-(trifluoromethyl) phenol], for which, at NLRP3 [1], the IC50 stood at 20.9 nM.

With `Cc1nc(N[C@@H]2CCCN(C(C)(C)C)C2)nnc1-c1ccc(C(F)(F)F)cc1O` (single isomer, unassigned) [Example 10, 2-[3-[[(3R or 3S)-1-tert-Butyl-3-piperidyl]amino]-5-methyl-1,2,4-triazin-6-yl]-5-(trifluoromethyl) phenol], the IC50 on NLRP3 [1] was 434 nM.

As for `Cc1nc(NC2CCCN(C(C)(C)C)C2)nnc1-c1ccc(C(F)(F)F)cc1O` (single isomer, unassigned) [Example 11, 2-[3-[[(3S or 3R)-1-tert-Butyl-3-piperidyl]amino]-5-methyl-1,2,4-triazin-6-yl]-5-(trifluoromethyl) phenol], the half-inhibitory concentration (IC50) is 2.2 nM on NLRP3 [1] and 15.6 nM on NLRP3 [2].

With `Cc1nc(NC2CCCN3CCCC23)nnc1-c1ccc(C(F)(F)F)cc1O` (single isomer, unassigned) [Example 28], the IC50 at NLRP3 [1] was found to be 2.4 nM; on NLRP3 [2], 18.8 nM.

With `Cc1nc(NC2CCCN3CCCC23)nnc1-c1ccc(C(F)(F)F)cc1O` (single isomer, unassigned) [Example 29], on NLRP3 [1], the IC50 came to 163 nM.

In the case of `Cc1nc(NC2CCC3CCCN3C2)nnc1-c1ccc(C(F)(F)F)cc1O` (single isomer, unassigned) [Example 31, 2-[3-[[(6S or 6R,8aS or 8aR)-1,2,3,5,6,7,8,8a-octahydroindolizin-6-yl]amino]-5-methyl-1,2,4-triazin-6-yl]-5-(trifluoromethyl) phenol], the IC50 at NLRP3 [1] is > 1000 nM.

As to `Cc1nc(NC2CCC3CCCN3C2)nnc1-c1ccc(C(F)(F)F)cc1O` (single isomer, unassigned) [Example 32, 2-[3-[[(6R or 6S,8aS or 8aR)-1,2,3,5,6,7,8,8a-octahydroindolizin-6-yl]amino]-5-methyl-1,2,4-triazin-6-yl]-5-(trifluoromethyl) phenol], the results for the IC50 on NLRP3 [1] and against NLRP3 [2] were 16.1 nM and 36.5 nM, respectively.

On to `Cc1nc(NC2CCC3CCCN3C2)nnc1-c1ccc(C(F)(F)F)cc1O` (single isomer, unassigned) [Example 33, 2-[3-[[(6S or 6R,8aR or 8aS)-1,2,3,5,6,7,8,8a-octahydroindolizin-6-yl]amino]-5-methyl-1,2,4-triazin-6-yl]-5-(trifluoromethyl) phenol], for which the IC50 at NLRP3 [1] was found to be 46.1 nM; on NLRP3 [2], 300 nM.

With `Cc1nc(NC2CCC3CCCN3C2)nnc1-c1ccc(C(F)(F)F)cc1O` (single isomer, unassigned) [Example 34, 2-[3-[[(6R or 6S, 8aR or 8aS)-1,2,3,5,6,7,8,8a-octahydroindolizin-6-yl]amino]-5-methyl-1,2,4-triazin-6-yl]-5-(trifluoromethyl) phenol], the IC50 on NLRP3 [1] is 209 nM.

In the case of `CCN1CCC[C@@H](Nc2ncc(-c3c(C)cc(C(F)(F)F)cc3O)nn2)C1` [Example 1, 2-[3-[[(3R)-1-Ethyl-3-piperidyl]amino]-1,2,4-triazin-6-yl]-3-methyl-5-(trifluoromethyl) phenol; 2,2,2-trifluoroacetic acid], the figures for the IC50 on NLRP3 [1] and against NLRP3 [2] were 9 nM and 39 nM, respectively.

`Cc1nc(N[C@H]2C[C@@](C)(O)C2)nnc1-c1ccc(C(F)(F)F)cc1O` [Example 3, 2-[3-[(3-Hydroxy-3-methyl-cyclobutyl)amino]-5-methyl-1,2,4-triazin-6-yl]-5-(trifluoromethyl) phenol]: the IC50 worked out at 107 nM on NLRP3 [1] and 191 nM against NLRP3 [2].

As for `CCN1CCC[C@@H](Nc2nnc(-c3ccc(Cl)cc3O)c(C)n2)C1` [Example 5, 5-Chloro-2-[3-[[(3R)-1-ethyl-3-piperidyl]amino]-5-methyl-1,2,4-triazin-6-yl]phenol], the results for the IC50 at NLRP3 [1] and against NLRP3 [2] were 1.3 nM and 3.8 nM, respectively.

As for `CCN1CCC[C@@H](Nc2nnc(-c3ccc(F)cc3O)c(C)n2)C1` [Example 6, 2-[3-[[(3R)-1-Ethyl-3-piperidyl]amino]-5-methyl-1,2,4-triazin-6-yl]-5-fluoro-phenol], the IC50 on NLRP3 [1] stood at 15.5 nM; against NLRP3 [2], 14.6 nM.

In the case of `CCN1CCC[C@@H](Nc2nnc(-c3ccc4c(c3O)CC4)c(C)n2)C1` [Example 8, 3-[3-[[(3R)-1-Ethyl-3-piperidyl]amino]-5-methyl-1,2,4-triazin-6-yl]bicyclo[4.2.0]octa-1(6),2,4-trien-2-ol], the IC50 amounted to 0.4 nM on NLRP3 [1] and 4.3 nM at NLRP3 [2].

`CCN1CCC[C@@H](Nc2nnc(-c3c(O)cc(C(F)(F)F)cc3F)c(C)n2)C1` [Example 9, 2-[3-[[(3R)-1-Ethyl-3-piperidyl]amino]-5-methyl-1,2,4-triazin-6-yl]-3-fluoro-5-(trifluoromethyl) phenol]: the values for the IC50 at NLRP3 [1] and on NLRP3 [2] were 3.5 nM and 27.4 nM, respectively.

Turning to `CCN1CCC[C@@H](Nc2nnc(-c3ccc(C#N)cc3O)c(C)n2)C1` [Example 12, 4-[3-[[(3R)-1-Ethyl-3-piperidyl]amino]-5-methyl-1,2,4-triazin-6-yl]-3-hydroxy-benzonitrile], the results for the IC50 on NLRP3 [1] and at NLRP3 [2] were 20.5 nM and 23.9 nM, respectively.

Turning to `Cc1nc(N[C@@H]2C[C@H](F)CN(C)C2)nnc1-c1ccc(C(F)(F)F)cc1O` [Example 13, 2-[3-[[(3R,5S)-5-Fluoro-1-methyl-3-piperidyl]amino]-5-methyl-1,2,4-triazin-6-yl]-5-(trifluoromethyl) phenol], on NLRP3 [1], the IC50 amounted to 77 nM.

Turning to `Cc1nc(NC2CCCn3ccnc32)nnc1-c1ccc(C(F)(F)F)cc1O` (stereo not shown) [Example 14, 2-[5-Methyl-3-(5,6,7,8-tetrahydroimidazo[1,2-a]pyridin-8-ylamino)-1,2,4-triazin-6-yl]-5-(trifluoromethyl) phenol], on NLRP3 [1], the IC50 was 350 nM.

For the compound `Cc1nc(N[C@@H]2CCCN(C)C2)nnc1-c1ccc(F)cc1O` [Example 15, 5-Fluoro-2-[5-methyl-3-[[(3R)-1-methyl-3-piperidyl]amino]-1,2,4-triazin-6-yl]phenol], the IC50 worked out at 18.3 nM on NLRP3 [1] and 15.1 nM against NLRP3 [2].

Regarding `Cc1nc(N[C@@H]2CCCN(C)C2)nnc1-c1ccc(Cl)cc1O` [Example 16, 5-Chloro-2-[5-methyl-3-[[(3R)-1-methyl-3-piperidyl]amino]-1,2,4-triazin-6-yl]phenol], the results for the IC50 on NLRP3 [1] and against NLRP3 [2] were 1.5 nM and 13.2 nM, respectively.

As for `Cc1nc(N[C@@H]2CCCNC2)nnc1-c1ccc(C(F)(F)F)cc1O` [Example 17, 2-[5-Methyl-3-[[(3R)-3-piperidyl]amino]-1,2,4-triazin-6-yl]-5-(trifluoromethyl) phenol], the IC50 at NLRP3 [1] turned out to be 13.4 nM; against NLRP3 [2], 46.5 nM.

With `CCN1CCC[C@@H](Nc2nnc(-c3ccc(C(F)(F)F)cc3O)c(C(F)(F)F)n2)C1` [Example 30, 2-[3-[[(3R)-1-Ethyl-3-piperidyl]amino]-5-(trifluoromethyl)-1,2,4-triazin-6-yl]-5-(trifluoromethyl) phenol; 2,2,2-trifluoroacetic acid], the IC50 at NLRP3 [1] stood at 111 nM.
